Results reported in publication PMC9511441, “Semisynthetic teicoplanin derivatives with dual antimicrobial activity against SARS-CoV-2 and multiresistant bacteria” (Scientific Reports, 2022).
In brackets after ≈: the same amount, converted by molar mass. Like-named read-outs stand apart in the source and are kept apart here.

What was measured:
[1] = system: SARS-CoV-2 pseudovirus; assay: microbe, parasite or virus in culture; assay type: cell-based; conditions: A549-AT cells, TMPRSS2-mediated uptake
[2] = system: S.pyogenes; assay: MIC, broth microdilution; assay type: cell-based; conditions: Streptococcus pyogenes
[3] = system: E. faecalis; assay: MIC, broth microdilution; assay type: cell-based; conditions: Enterococcus faecalis
[4] = system: S. aureus; assay: MIC, broth microdilution; assay type: cell-based; conditions: Staphylococcus aureus
[5] = system: S. haemolyticus; assay: MIC, broth microdilution; assay type: cell-based; conditions: Staphylococcus haemolyticus
[6] = system: HEL cells; assay: Cytotoxicity in mock-infected HEL cells (MTS); assay type: cell-based, human; conditions: mock-infected HEL cells, MTS, mean of 2–3 tests
[7] = biological target: T1, human recombinant cathepsin L (Homo sapiens, UniProt P07711); assay: biochemical; assay type: biochemical; conditions: read-out: Cathepsin L IC50; pH 5.5, Z-Phe-Arg-AMC substrate
T1 construct: made in house; host or cells: Escherichia coli
T1 sequence (P07711 114-333): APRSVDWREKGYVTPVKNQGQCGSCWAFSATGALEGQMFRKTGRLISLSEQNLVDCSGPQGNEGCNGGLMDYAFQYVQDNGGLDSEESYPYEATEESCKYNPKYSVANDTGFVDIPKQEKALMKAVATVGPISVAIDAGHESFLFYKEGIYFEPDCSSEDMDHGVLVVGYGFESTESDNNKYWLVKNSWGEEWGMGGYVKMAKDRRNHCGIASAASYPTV

[8] = system: Calu-3 cells; assay: Cytotoxicity in mock-infected Calu-3 cells (XTT); conditions: read-out: CC50, Calu-3 cells, three days
[9] = system: VeroE6 cells; assay: Cytotoxicity in mock-infected VeroE6 cells (XTT); assay type: cell-based, African green monkey; conditions: mock-infected Vero E6 cells, three days, XTT
[10] = system: E. faecium; assay: microbe, parasite or virus in culture; assay type: cell-based; conditions: Enterococcus faecium
[11] = system: S. epidermidis; assay: microbe, parasite or virus in culture; assay type: cell-based; conditions: Staphylococcus epidermidis
[12] = system: SARS-CoV-2 pseudovirus; assay: microbe, parasite or virus in culture; assay type: cell-based; conditions: cathepsin-dependent endosomal pathway
[13] = system: Escherichia coli ATCC 25218; assay: MIC against Gram-negative strain; conditions: ATCC25218
[14] = system: Klebsiella pneumoniae ST258 clone K 160/09; assay: MIC against Gram-negative strain; conditions: Klebsiella pneumoniae
[15] = system: Acinetobacter baumannii ATCC BAA1605; assay: MIC against Gram-negative strain; conditions: Acinetobacter baumannii, ATCCBAA1605
[16] = system: S. aureus ATCC29213; assay: Fluorescent competition assay, release of fluorescent vancomycin; conditions: cells saturated with FL-VAN, Fig. 7 left panel
[17] = system: Pseudomonas aeruginosa ATCC 27853; assay: MIC against Gram-negative strain; conditions: ATCC27853
[18] = read-out: MIC value, S.pyogenes H232
[19] = read-out: MIC value, S.pyogenes H550
[20] = read-out: MIC value, S.pyogenes H578
[21] = read-out: Average MIC value, E. faecalis VAN^R,TEI^R/VanA, 1 strain
[22] = read-out: Average MIC value, E. faecalis VAN^S, TEI^S, 2 strains
[23] = read-out: MIC value, E.faecalis JH2-2
[24] = read-out: MIC value, E.faecalis OG1RF
[25] = read-out: MIC value, E.faecalis V583, VAN,TEI/VanA
[26] = ATCC 29213 / MSSA, read-out: MIC value, S. aureus ATCC29213, MSSA
[27] = MRSA / USA300, read-out: MIC value, S. aureus USA300, CA-MRSA
[28] = MRSA, read-out: Average MIC value, S. aureus CA-MRSA, 1 strain
[29] = MRSA, read-out: Average MIC value, S. aureus MRSA, 7 strains
[30] = MRSA, read-out: MIC value, S. aureus 73OL, MRSA
[31] = MRSA, read-out: MIC value, S. aureus 214OL, MRSA
[32] = MRSA, read-out: MIC value, S. aureus 1041OL, MRSA
[33] = MRSA, read-out: MIC value, S. aureus A6918, MRSA
[34] = MRSA, read-out: MIC value, S. aureus A6919, MRSA
[35] = MRSA, read-out: MIC value, S. aureus Mu50, MRSA
[36] = MRSA, read-out: MIC value, S. aureus N315, MRSA
[37] = MSSA / NEWMAN, read-out: MIC value, S. aureus Newman, MSSA
[38] = MSSA, read-out: Average MIC value, S. aureus MSSA, 4 strains
[39] = MSSA, read-out: MIC value, S. aureus MSSA476, MSSA
[40] = MSSA, read-out: MIC value, S. aureus SA564, MSSA
[41] = S. haemolyticus mecA, 6 strains, read-out: Average MIC value
[42] = S.haemolyticus DALB_R1, mecA, read-out: MIC value
[43] = S.haemolyticus DALB_R2, mecA, read-out: MIC value
[44] = S.haemolyticus DALB_R3, mecA, read-out: MIC value
[45] = S.haemolyticus DALB_R4, mecA, read-out: MIC value
[46] = S.haemolyticus DALB_R5, mecA, read-out: MIC value
[47] = S.haemolyticus ORI_R1, mecA, read-out: MIC value
[48] = read-out: Average MIC value, E. faecium VAN^R,TEI^R/VanA, 8 strains
[49] = read-out: Average MIC value, E. faecium VAN^S, TEI^S, 1 strain
[50] = read-out: MIC value, E.faecium E335, VAN,TEI,LNZ/VanA
[51] = read-out: MIC value, E.faecium E355, VAN,TEI,LNZ/VanA
[52] = read-out: MIC value, E.faecium E832, VAN,TEI,LNZ/VanA
[53] = read-out: MIC value, E.faecium E854, VAN,TEI,LNZ/VanA
[54] = read-out: MIC value, E.faecium E859, VAN,TEI,LNZ/VanA
[55] = read-out: MIC value, E.faecium E1114, VAN,TEI,LNZ/VanA
[56] = read-out: MIC value, E.faecium E1131, VAN,TEI,LNZ/VanA
[57] = read-out: MIC value, E.faecium E1132, VAN,TEI,LNZ/VanA
[58] = read-out: MIC value, E.faecium TX0016
[59] = read-out: Average MIC value, S. epidermidis mecA, 6 strains
[60] = read-out: MIC value, S.epidermidis ORI_R1, mecA
[61] = read-out: MIC value, S.epidermidis ORI_R2, mecA
[62] = read-out: MIC value, S.epidermidis ORI_R3, mecA
[63] = read-out: MIC value, S.epidermidis ORI_R4, mecA
[64] = read-out: MIC value, S.epidermidis TEI_R1, mecA
[65] = read-out: MIC value, S.epidermidis TEI_R2, mecA

CC(=O)N[C@H]1[C@H](O[C@@H]2c3ccc(c(Cl)c3)Oc3cc4cc(c3O)Oc3ccc(cc3Cl)C[C@H]3NC(=O)[C@H](n5cc(COCCCC(F)(F)C(F)(F)C(F)(F)C(F)(F)C(F)(F)C(F)(F)F)nn5)c5ccc(O)c(c5)Oc5cc(O)cc(c5)[C@H](NC3=O)C(=O)N[C@H]4C(=O)N[C@H]3C(=O)N[C@@H]2C(=O)N[C@H](C(=O)O)c2cc(O)cc(O)c2-c2cc3ccc2O)O[C@H](CO)[C@@H](O)[C@@H]1O [Compound 4]
Inhibition of pseudovirus entry in A549-AT cells (in words) [1]: active, though less potent
MIC [2, 18]: 0.0625 µg/mL (≈ 0.0339 µM)
MIC [2, 19]: 0.0625 µg/mL (≈ 0.0339 µM)
MIC [2, 20]: 0.0625 µg/mL (≈ 0.0339 µM)
MIC [3, 21]: > 8 µg/mL
MIC [3, 22]: 0.25 µg/mL (≈ 0.136 µM)
MIC [3, 23]: 0.25 µg/mL (≈ 0.136 µM)
MIC [3, 24]: 0.25 µg/mL (≈ 0.136 µM)
MIC [3, 25]: > 8 µg/mL
MIC [4, 26]: 1 µg/mL (≈ 0.542 µM)
MIC [4, 27]: 2 µg/mL (≈ 1.08 µM)
MIC [4, 28]: 2 µg/mL (≈ 1.08 µM)
MIC [4, 29]: 1.71 µg/mL (≈ 0.929 µM)
MIC [4, 30]: 2 µg/mL (≈ 1.08 µM)
MIC [4, 31]: 2 µg/mL (≈ 1.08 µM)
MIC [4, 32]: 2 µg/mL (≈ 1.08 µM)
MIC [4, 33]: 1 µg/mL (≈ 0.542 µM)
MIC [4, 34]: 1 µg/mL (≈ 0.542 µM)
MIC [4, 35]: 2 µg/mL (≈ 1.08 µM)
MIC [4, 36]: 2 µg/mL (≈ 1.08 µM)
MIC [4, 37]: 2 µg/mL (≈ 1.08 µM)
MIC [4, 38]: 1.75 µg/mL (≈ 0.949 µM)
MIC [4, 39]: 2 µg/mL (≈ 1.08 µM)
MIC [4, 40]: 2 µg/mL (≈ 1.08 µM)
MIC [5, 41]: 6.8 µg/mL (≈ 3.69 µM)
MIC [5, 42]: 8 µg/mL (≈ 4.34 µM)
MIC [5, 43]: 8 µg/mL (≈ 4.34 µM)
MIC [5, 44]: 8 µg/mL (≈ 4.34 µM)
MIC [5, 45]: 8 µg/mL (≈ 4.34 µM)
MIC [5, 46]: 1 µg/mL (≈ 0.542 µM)
MIC [5, 47]: 8 µg/mL (≈ 4.34 µM)
CC50 [6]: > 100 µM
IC50 [7]: 66 ± 1 µM
CC50 [8]: 93 ± 11 µM
CC50 [9]: > 100 µM
MIC [10, 48]: > 8 µg/mL
MIC [10, 49]: 0.25 µg/mL (≈ 0.136 µM)
MIC [10, 50]: > 8 µg/mL
MIC [10, 51]: > 8 µg/mL
MIC [10, 52]: > 8 µg/mL
MIC [10, 53]: > 8 µg/mL
MIC [10, 54]: > 8 µg/mL
MIC [10, 55]: > 8 µg/mL
MIC [10, 56]: > 8 µg/mL
MIC [10, 57]: > 8 µg/mL
MIC [10, 58]: 0.25 µg/mL (≈ 0.136 µM)
MIC [11, 59]: 0.812 µg/mL (≈ 0.44 µM)
MIC [11, 60]: 2 µg/mL (≈ 1.08 µM)
MIC [11, 61]: 1 µg/mL (≈ 0.542 µM)
MIC [11, 62]: 1 µg/mL (≈ 0.542 µM)
MIC [11, 63]: 0.25 µg/mL (≈ 0.136 µM)
MIC [11, 64]: 0.5 µg/mL (≈ 0.271 µM)
MIC [11, 65]: 0.125 µg/mL (≈ 0.0678 µM)
Inhibition of pseudovirus entry in Vero cells (in words) [12]: highly effective

CC(=O)N[C@H]1[C@H](O[C@@H]2c3ccc(c(Cl)c3)Oc3cc4cc(c3O)Oc3ccc(cc3Cl)C[C@H]3NC(=O)[C@H](NC(=O)c5cc(OCCCSCCNC(=N)N)c(OCCCSCCNC(=N)N)c(OCCCSCCNC(=N)N)c5)c5ccc(O)c(c5)Oc5cc(O)cc(c5)[C@H](NC3=O)C(=O)N[C@H]4C(=O)N[C@H]3C(=O)N[C@@H]2C(=O)N[C@H](C(=O)O)c2cc(O)cc(O)c2-c2cc3ccc2O)O[C@H](CO)[C@@H](O)[C@@H]1O [Compound 7]
MIC [2, 18]: 0.25 µg/mL (≈ 0.123 µM)
MIC [2, 19]: 0.25 µg/mL (≈ 0.123 µM)
MIC [2, 20]: 0.25 µg/mL (≈ 0.123 µM)
MIC [3, 21]: > 8 µg/mL
MIC [3, 22]: 2 µg/mL (≈ 0.984 µM)
MIC [3, 23]: 2 µg/mL (≈ 0.984 µM)
MIC [3, 24]: 2 µg/mL (≈ 0.984 µM)
MIC [3, 25]: > 8 µg/mL
MIC [4, 26]: 0.5 µg/mL (≈ 0.246 µM)
MIC [4, 27]: 1 µg/mL (≈ 0.492 µM)
MIC [4, 28]: 1 µg/mL (≈ 0.492 µM)
MIC [4, 29]: 0.89 µg/mL (≈ 0.438 µM)
MIC [4, 30]: 1 µg/mL (≈ 0.492 µM)
MIC [4, 31]: 1 µg/mL (≈ 0.492 µM)
MIC [4, 32]: 1 µg/mL (≈ 0.492 µM)
MIC [4, 33]: 1 µg/mL (≈ 0.492 µM)
MIC [4, 34]: 1 µg/mL (≈ 0.492 µM)
MIC [4, 35]: 1 µg/mL (≈ 0.492 µM)
MIC [4, 36]: 0.25 µg/mL (≈ 0.123 µM)
MIC [4, 37]: 1 µg/mL (≈ 0.492 µM)
MIC [4, 38]: 1.12 µg/mL (≈ 0.554 µM)
MIC [4, 39]: 2 µg/mL (≈ 0.984 µM)
MIC [4, 40]: 1 µg/mL (≈ 0.492 µM)
MIC [5, 41]: 1.2 µg/mL (≈ 0.591 µM)
MIC [5, 42]: 1 µg/mL (≈ 0.492 µM)
MIC [5, 43]: 1 µg/mL (≈ 0.492 µM)
MIC [5, 44]: 2 µg/mL (≈ 0.984 µM)
MIC [5, 45]: 2 µg/mL (≈ 0.984 µM)
MIC [5, 46]: 0.5 µg/mL (≈ 0.246 µM)
MIC [5, 47]: 0.5 µg/mL (≈ 0.246 µM)
MIC [13]: 256 µg/mL (≈ 126 µM)
MIC [14]: 512 µg/mL (≈ 252 µM)
MIC [15]: 128 µg/mL (≈ 63 µM)
CC50 [6]: > 100 µM
IC50 [7]: 4.5 ± 1 µM
CC50 [8]: > 100 µM
CC50 [9]: > 100 µM
Outcompeting fluorescent vancomycin from S. aureus (in words) [16]: no effect
MIC [10, 48]: > 8 µg/mL
MIC [10, 49]: 2 µg/mL (≈ 0.984 µM)
MIC [10, 50]: > 8 µg/mL
MIC [10, 51]: > 8 µg/mL
MIC [10, 52]: > 8 µg/mL
MIC [10, 53]: > 8 µg/mL
MIC [10, 54]: > 8 µg/mL
MIC [10, 55]: > 8 µg/mL
MIC [10, 56]: > 8 µg/mL
MIC [10, 57]: > 8 µg/mL
MIC [10, 58]: 2 µg/mL (≈ 0.984 µM)
MIC [11, 59]: 0.25 µg/mL (≈ 0.123 µM)
MIC [11, 60]: 0.25 µg/mL (≈ 0.123 µM)
MIC [11, 61]: 0.25 µg/mL (≈ 0.123 µM)
MIC [11, 62]: 0.25 µg/mL (≈ 0.123 µM)
MIC [11, 63]: 0.25 µg/mL (≈ 0.123 µM)
MIC [11, 64]: 0.25 µg/mL (≈ 0.123 µM)
MIC [11, 65]: 0.25 µg/mL (≈ 0.123 µM)
MIC [17]: 128 µg/mL (≈ 63 µM)
